Values of other authors as cited in patent US6696413B2 (Hexal AG, priority 1995, dated 2004).

Settings: 16 hours after application of 300 μg of a 5 percent vitamin E solution in ethanol per cm^2

vitamin E found in the horny layer: 10.7%
vitamin E found in underlying skin layers: about 40.9%
Substance: vitamin E
